Experimental data taken from ChEMBL document CHEMBL1201862, “PubChem BioAssay data set” (2004).
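A five-concentration, 48-hour dose response in 96-well plates underlies each endpoint, interpolated linearly between surrounding concentrations. GI50 = concentration required for 50% inhibition of growth.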 Activity calls are given as the source filed them. No stated cut-off is given here; in the data, active = GI50 up to about 1.1 µM and inactive = higher.

Experiments:
Experiment in all cases: DTP human tumour cell line panel, 48 h
PC-3 = system: PC-3
RXF 393 = system: RXF 393
HCT-116 = system: HCT-116
SF-268 = system: SF-268
NCI-H226 = system: NCI-H226
A498 = system: A498
NCI-H23 = system: NCI-H23
KM12 = system: KM12
SNB-19 = system: SNB-19
BT-549 = system: BT-549
SF-539 = system: SF-539
K562 = system: K562
A549 = system: A549
UACC-257 = system: UACC-257
SW-620 = system: SW-620
SNB-75 = system: SNB-75
OVCAR-8 = system: OVCAR-8
TK-10 = system: TK-10
COLO 205 = system: COLO 205
M14 = system: M14
U-251 = system: U-251
OVCAR-5 = system: OVCAR-5
ACHN = system: ACHN
RPMI-8226 = system: RPMI-8226
MOLT-4 = system: MOLT-4
UACC-62 = system: UACC-62
HCC 2998 = system: HCC 2998
NCI-H460 = system: NCI-H460
HT-29 = system: HT-29
DU-145 = system: DU-145
HOP-92 = system: HOP-92
UO-31 = system: UO-31
HOP-62 = system: HOP-62
OVCAR-3 = system: OVCAR-3
CCRF-CEM = system: CCRF-CEM
SF-295 = system: SF-295
SK-MEL-5 = system: SK-MEL-5
OVCAR-4 = system: OVCAR-4
MDA-MB-435 = system: MDA-MB-435
NCI/ADR-RES = system: NCI/ADR-RES
Malme-3M = system: Malme-3M
MCF7 = system: MCF7
HCT-15 = system: HCT-15
LOX IMVI = system: LOX IMVI
EKVX = system: EKVX
MDA-N = system: MDA-N
SN12C = system: SN12C
SK-MEL-2 = system: SK-MEL-2
786-0 = system: 786-0
HL-60 = system: HL-60
SK-OV-3 = system: SK-OV-3
CAKI-1 = system: CAKI-1
MDA-MB-231 = system: MDA-MB-231
NCI-H522 = system: NCI-H522
T47D = system: T47D
IGROV-1 = system: IGROV-1
SK-MEL-28 = system: SK-MEL-28

CC1(C)OC[C@@H]([C@H](O)C2C=CC(=O)S2)O1 (stereo partly drawn)
GI50 (PC-3): 34 µM (inactive)
GI50 (RXF 393): 15 µM (inactive)
GI50 (HCT-116): 14.3 µM (inactive)
GI50 (SF-268): 15.5 µM (inactive)
GI50 (NCI-H226): 27.5 µM (inactive)
GI50 (A498): 21.4 µM (inactive)
GI50 (NCI-H23): 26.4 µM (inactive)
GI50 (KM12): 14.6 µM (inactive)
GI50 (SNB-19): 43.6 µM (inactive)
GI50 (BT-549): 17.9 µM (inactive)
GI50 (SF-539): 27.4 µM (inactive)
GI50 (K562): 25.4 µM (inactive)
GI50 (A549): 29.6 µM (inactive)
GI50 (UACC-257): 26.8 µM (inactive)
GI50 (SW-620): 32 µM (inactive)
GI50 (SNB-75): 45.5 µM (inactive)
GI50 (OVCAR-8): 21.2 µM (inactive)
GI50 (TK-10): 44.9 µM (inactive)
GI50 (COLO 205): 17.9 µM (inactive)
GI50 (M14): 44.3 µM (inactive)
GI50 (U-251): 27.7 µM (inactive)
GI50 (OVCAR-5): 63.7 µM (inactive)
GI50 (ACHN): 19.2 µM (inactive)
GI50 (RPMI-8226): 18.4 µM (inactive)
GI50 (MOLT-4): 32 µM (inactive)
GI50 (UACC-62): 14.6 µM (inactive)
GI50 (HCC 2998): 16.6 µM (inactive)
GI50 (NCI-H460): 28.2 µM (inactive)
GI50 (HT-29): 23.6 µM (inactive)
GI50 (DU-145): 21.2 µM (inactive)
GI50 (HOP-92): 22.4 µM (inactive)
GI50 (UO-31): 20.8 µM (inactive)
GI50 (HOP-62): 47.9 µM (inactive)
GI50 (OVCAR-3): 50.5 µM (inactive)
GI50 (CCRF-CEM): 24.1 µM (inactive)
GI50 (SF-295): 27.5 µM (inactive)
GI50 (SK-MEL-5): 18.7 µM (inactive)
GI50 (OVCAR-4): 42.1 µM (inactive)
GI50 (MDA-MB-435): 37.8 µM (inactive)
GI50 (NCI/ADR-RES): 21.5 µM (inactive)
GI50 (Malme-3M): 18.1 µM (inactive)
GI50 (MCF7): 30.2 µM (inactive)
GI50 (HCT-15): 19.8 µM
GI50 (LOX IMVI): 15.7 µM (inactive)
GI50 (EKVX): 31 µM (inactive)
GI50 (MDA-N): 22.1 µM (inactive)
GI50 (SN12C): 27.9 µM (inactive)
GI50 (SK-MEL-2): 20.3 µM (inactive)
GI50 (786-0): 22.9 µM (inactive)
GI50 (HL-60): 8.73 µM (inactive)
GI50 (SK-OV-3): 34.6 µM (inactive)
GI50 (CAKI-1): 28.1 µM (inactive)
GI50 (MDA-MB-231): 30.8 µM (inactive)

COC(=O)c1cc2c3c(cc(N(C)C)c2[nH]1)N(C(=O)c1cc2cc(OC)c(OC)c(OC)c2[nH]1)CC3CCl (stereo not drawn)
GI50 (PC-3): 0.00366 µM (active)
GI50 (RXF 393): < 0.0025 µM (active)
GI50 (HCT-116): < 0.0025 µM (active)
GI50 (SF-268): 0.00374 µM (active)
GI50 (NCI-H226): 0.00362 µM (active)
GI50 (A498): 0.00443 µM (active)
GI50 (NCI-H23): 0.00381 µM (active)
GI50 (KM12): 0.00267 µM (active)
GI50 (SNB-19): 0.00775 µM (active)
GI50 (BT-549): 0.018 µM (active)
GI50 (SF-539): 0.00653 µM (active)
GI50 (K562): 0.00317 µM (active)
GI50 (A549): 0.00292 µM (active)
GI50 (UACC-257): 0.00476 µM (active)
GI50 (SW-620): < 0.0025 µM (active)
GI50 (SNB-75): 0.0042 µM (active)
GI50 (NCI-H522): 0.00279 µM (active)
GI50 (TK-10): 0.00968 µM (active)
GI50 (COLO 205): 0.00557 µM (active)
GI50 (M14): 0.00294 µM (active)
GI50 (U-251): < 0.0025 µM (active)
GI50 (OVCAR-5): 0.00776 µM (active)
GI50 (ACHN): < 0.0025 µM (active)
GI50 (RPMI-8226): 0.00432 µM (active)
GI50 (MOLT-4): < 0.0025 µM (active)
GI50 (UACC-62): 0.00558 µM (active)
GI50 (HCC 2998): 0.00948 µM (active)
GI50 (NCI-H460): 0.00252 µM (active)
GI50 (T47D): < 0.0025 µM (active)
GI50 (HT-29): 0.25 µM (active)
GI50 (IGROV-1): < 0.0025 µM (active)
GI50 (DU-145): < 0.0025 µM (active)
GI50 (HOP-92): 0.0041 µM (active)
GI50 (UO-31): 0.00316 µM (active)
GI50 (HOP-62): 0.00262 µM (active)
GI50 (SK-MEL-28): 0.00641 µM (active)
GI50 (OVCAR-3): 0.00396 µM (active)
GI50 (CCRF-CEM): 0.00403 µM (active)
GI50 (SF-295): 0.00379 µM (active)
GI50 (SK-MEL-5): 0.00333 µM (active)
GI50 (OVCAR-4): 0.00745 µM (active)
GI50 (MDA-MB-435): 0.00298 µM (active)
GI50 (NCI/ADR-RES): 0.00392 µM (active)
GI50 (Malme-3M): 0.00463 µM (active)
GI50 (MCF7): < 0.0025 µM (active)
GI50 (HCT-15): 0.00468 µM
GI50 (EKVX): 0.0146 µM (active)
GI50 (MDA-N): 0.00427 µM (active)
GI50 (SN12C): 0.0114 µM (active)
GI50 (SK-MEL-2): 0.00762 µM (active)
GI50 (786-0): < 0.0025 µM (active)
GI50 (SK-OV-3): 0.00738 µM (active)
GI50 (CAKI-1): < 0.0025 µM (active)
GI50 (MDA-MB-231): 0.00419 µM (active)

O=P(O)(O)OC1C(OP(=O)(O)O)C(OP(=O)(O)O)C(OP(=O)(O)O)C(OP(=O)(O)O)C1OP(=O)(O)O (stereo not drawn) [PHYTATE]
GI50 (EKVX): > 500 µM (inactive)
